Laboratory results as given in publication PMC10788856, “Mimicking Nonribosomal Peptides from the Marine Actinomycete Streptomyces sp. H-KF8 Leads to Antimicrobial Peptides” (ACS Infectious Diseases, 2023).
Converted amounts (≈) assume the structure as drawn. Marks after values point to notes of the source that are not given here. Numbered stars: 1 amine (or outer) side, 2 acyl side, 3 side chain; on linkers, the order of the positions; unused ones are H or OH. Bridge positions count the residues as written; N and C are the ends. Square brackets hold non-standard residues; d marks the D form. Peptide text beside a SMILES is read from it. Tyr(3-NO2) = N[C@@H](Cc1ccc(O)c([N+](=O)[O-])c1)C(=O)O; Glutaryl = O=C(CCCC(=O)[*:2])[*:1]; Orn = NCCC[C@H](N)C(=O)O

Legend:
[1] = tested on: S. aureus; experiment: microbe, parasite or virus in culture; format: cell-based; details: for S. aureus MIC: 16 h
[2] = tested on: S. aureus (ATCC 12600); experiment: Minimum microbicidal concentration (MMC99) assay; format: cell-based; details: for S. aureus MMC99 6 h / S. aureus MMC99 24 h / S. aureus MMC99 2 h: BHI diluted 1/100, 37 °C, median, n = 3; for S. aureus MMC99 2 h: lowest concentration killing 99% of inoculum, two-fold dilutions 100-1.6 μg/mL
Protocol: (§1) The microbicidal activity of the synthetic peptides was assessed against S. aureus (ATCC 12600; American Type Culture Collection, Manassas, VA, USA), Escherichia coli (CCUG 31246; Culture Collection, University of Gothenburg, Sweden), and Candida albicans (ATCC 64549/CCUG31028) using an MMC assay, as described previously by […] et al. (specific details in Supporting Information, pages 10, 11).[28] The assay was performed in BHI diluted 1/100 (BHI100). […] page 11: Table S5. Energy and structural ensembles of synthesized peptides. […] Energy -3887.06 -3620.88 -4968.42 -2163.76 -2646.75 Van der Waals solv. Energy 117.32 91.57 183.20 -88.88 -139.89 Mean RMSD* (Å), mean±SD […] Heavy atoms 1.87 ± 0.33 1.77 ± 0.50 0.98 ± 0.34 0.63 ±0.22 2.88 ±0.62 MMC99 activity including salt stability measurements Antimicrobial activity of L2 and L3 in the presence of NaCl. 1Table S6. Peptide MMC99 (μg/ml) sin NaCl S. aureus E.coli C. albicans (mM) 2[…] 0 50 25 25 85 - - - - - - >200 >200 >200 150 - - - - - - >200 >200 >200 3L 0 12.5 12.5 25 12,5 6.3 6.3 12.5 6.3 12.5 […] 150 >400 >400 (-)2 >400 >400 >400 >200 >200 >200 […] or 150 mM NaCl. L2 and L3 were serially diluted in twofold steps with a starting dilution of 200 μg/ml […] All sample dilutions were run in duplicates (L2) or triplicates (L3). 2 The growth of S. aureus at 24 h in BHI 100 with 85 or 150 mM NaCl was reduced. Minimum microbicidal concentration (MMC), killing 99% of the inoculum. All microorganisms were cultured in brain-heart infusion broth (BHI) overnight on a shaker at 37°C. The cultures were thereafter transferred to fresh BHI broth in volumes constituting 10% of total, and incubated for an additional 2 h to reach exponential growth phase. The bacterial cultures were washed once in BHI diluted 1/100 (BHI100), followed by resuspension in BHI100. The cell suspensions were diluted to a density of […] (bacteria) or 2x10^7 CFU/ml (yeast), as estimated by optical density measurement at 590 nm. […] Serum stability Figure S 133. […] A) peptide L2 B) peptide L3. C) peptide L3-K. D) peptide C3.

[3] = tested on: C. albicans; experiment: microbe, parasite or virus in culture; format: cell-based; details: for C. albicans MIC: 16 h
[4] = tested on: E. coli CCUG31246; format: cell-based; details: CCUG31246, 16 h
Protocol: MICs were performed under the same growth conditions used for mode of action analysis following the guidelines issued by the Clinical Laboratory Standardization Institute (CLSI) with slight modifications. Serial two-fold dilutions of the peptides were prepared in 1:10 BHI in a sterile 96-well plate and subsequently inoculated with 5 × 10^5 CFU/mL of E. coli CCUG31246. […] The following MICs were obtained: C3: 512 μg/mL, L3: 64 μg/mL, and L3-K: 128 μg/mL. These concentrations were used for all mechanistic experiments. Polymyxin B was used as a positive control in all assays at a final concentration of 10 μg/mL.

[5] = tested on: Candida albicans (ATCC 64549/CCUG31028); experiment: Minimum microbicidal concentration (MMC99) assay; format: cell-based, C. albicans; details: BHI diluted 1/100, 37 °C, median, n = 3
Protocol: as §1

[6] = tested on: Escherichia coli (CCUG 31246); experiment: Minimum microbicidal concentration (MMC99) assay; format: cell-based, E. coli; details: BHI diluted 1/100, 37 °C, median, n = 3
Protocol: as §1

[7] = tested on: human embryonic kidney (HEK) cells; format: cell-based
Protocol: (§2) To confirm the peptide selectivity toward bacteria cells, cytotoxicity assays of synthesized peptides L2, L3, L3-K, and C3 against human embryonic kidney (HEK) and hepatoblastoma (HepG2) were performed (Figure 4). The cell viability was assessed using resazurin 24 h post peptide exposure. The line at 70% cell viability marks out the threshold for cytotoxic potential compared to the negative control.
(§3) Figure 4 Cell viability assessment using the resazurin assay 24 h post peptide exposure: (a) HepG2 and (b) HEK cells were treated with various concentrations of the peptides C3, L3, L3-K, and L2. Triton-X was used as a positive control. Cells cultured in pure cell media were used as negative controls and were considered to have 100% cell viability. The line represents the threshold for cytotoxicity level of 70% of cell viability compared to the negative control. Data are presented as the mean ± SD of three biological replicates of the HepG2 cells and the mean ± SD of two biological replicates of the HEK cells.
(§4) Cytotoxicity against human embryonic kidney (HEK) and hepatoblastoma (HepG2) cell lines was assessed. Cells were grown to an initial seeding density of 10 000 cells per well. Metabolic activity was determined in a resazurin-based assay. HEK and HepG2 cells were exposed to four different concentrations of the peptides for 24 h. Treatment with Triton X-100 at 1% v/v was used as a positive control. Following this exposure period, the cells were treated with resazurin at a final concentration of 0.015 mg/mL for 3 h. The metabolic activity was then determined in an resazurin-based assay. The fluorescence intensities were quantified in a Hidex Sense microplate reader using an excitation wavelength of 544 nm and an emission wavelength of 590 nm.

[8] = tested on: hepatoblastoma (HepG2) cells; format: cell-based, human
Protocol: as §2, §3, §4

[9] = 37 °C, RP-HPLC; for stability in human serum: human serum from male AB plasma, 250 μL serum + 100 μL aqueous peptide solution (L2 1 mM; L3 0.9 mM; L3-K 0.7 mM; C3 0.5 mM), 0, 0.5, 1, 4, 24 h, Fmoc-Gly internal standard; for additional peaks / shoulder in chromatogram after 24 h in serum, total volume percentage: human serum, detection at 254 nm
Protocol: Peptide stability in serum is another limiting factor for AMPs as novel antibiotics.[30]
Peptide serum stability was performed according to D́Aloisio et al.[30] and Chen et al.[51] with some minor modifications. The serum stability was investigated using human serum (Sigma-Aldrich) from Human male AB plasma, USA origin, sterile-filtered. 250 μL serum was temperature-equilibrated at 37 °C and 100 μL aqueous peptide solution (L2: 1 mM; L3: 0.9 mM; L3-K: 0.7 mM; and C3: 0.5 mM) was added. RP-HPLC was measured at time intervals of 0, 0.5, 1, 4, and 24 h. For RP-HPLC samples, 30 μL of peptide solution was taken, 7 μL of Fmoc-Gly solution (4 mM) was added, and 2 μL of the sample was injected to HPLC. […]
Figure S 133. RP-HPLC chromatogram (gradient from 10 to 90% acetonitrile in water over 10 min at 2
ml/min, detection at 254 nm) of peptides tested for serum stability. A) peptide L2 B) peptide L3. C)
(1 picture or pasted object on this page, not shown here)

Compound	S. aureus MIC [1]	S. aureus MMC99 6 h [2]	S. aureus MMC99 24 h [2]	S. aureus MMC99 2 h [2]	C. albicans MIC [3]	E. coli MIC [4]	C. albicans MMC99 2 h [5]	C. albicans MMC99 6 h [5]	C. albicans MMC99 24 h [5]	also measured
CC(C)[C@H]1NC(=O)[C@@H](C)NC(=O)CCCC(=O)NCCCC[C@@H](C(N)=O)NC(=O)[C@@H](C(C)C)NC(=O)[C@@H](CC(=O)O)NC(=O)[C@H]([C@@H](C)O)NC(=O)[C@@H](CC(=O)O)NC(=O)[C@H](Cc2c[nH]c3ccccc23)NC(=O)[C@@H](C)NC1=O [C1] ([dA][dV][dA]W[dD]T[dD][dV]K-NH2; linker N-9 via Glutaryl)	>512 µg/mL	>100 µg/mL	>100 µg/mL	>100 µg/mL	>512 µg/mL	>512 µg/mL	>100 µg/mL	>100 µg/mL	>100 µg/mL	E. coli MMC99 2 h [6]: >100 µg/mL; E. coli MMC99 6 h [6]: >100 µg/mL; E. coli MMC99 24 h [6]: >100 µg/mL
CC(C)[C@H]1NC(=O)[C@H](CCCN)NC(=O)[C@H]([C@@H](C)O)NC(=O)[C@H](CCCN)NC(=O)[C@H](Cc2c[nH]c3ccccc23)NC(=O)[C@@H](C)NC(=O)[C@@H](C(C)C)NC(=O)[C@@H](C)NC(=O)CCCC(=O)NCCCC[C@@H](C(N)=O)NC1=O [C2] ([dA][dV][dA]W[Orn]T[Orn][dV]K-NH2; linker N-9 via Glutaryl)	>512 µg/mL	>100 µg/mL	>100 µg/mL	>100 µg/mL	>512 µg/mL	>512 µg/mL	>100 µg/mL	>100 µg/mL	>100 µg/mL	E. coli MMC99 2 h [6]: >100 µg/mL; E. coli MMC99 6 h [6]: >100 µg/mL; E. coli MMC99 24 h [6]: >100 µg/mL
CC(C)[C@@H](NC(=O)[C@@H](C)N)C(=O)N[C@H](C)C(=O)N[C@@H](Cc1c[nH]c2ccccc12)C(=O)N[C@H](CC(=O)O)C(=O)N[C@H](C(=O)N[C@H](CC(=O)O)C(=O)N[C@@H](C(=O)N[C@@H](CCCCN)C(N)=O)C(C)C)[C@@H](C)O [L1] (H-[dA][dV][dA]W[dD]T[dD][dV]K-NH2)	>512 µg/mL				>512 µg/mL	>512 µg/mL				
CC(C)[C@@H](NC(=O)[C@H](CCCN)NC(=O)[C@@H](NC(=O)[C@H](CCCN)NC(=O)[C@H](Cc1c[nH]c2ccccc12)NC(=O)[C@@H](C)NC(=O)[C@H](NC(=O)[C@@H](C)N)C(C)C)[C@@H](C)O)C(N)=O [L2-K] (H-[dA][dV][dA]W[Orn]T[Orn][dV]-NH2)	>512 µg/mL				>512 µg/mL	>512 µg/mL				
CC(C)[C@@H](NC(=O)[C@H](CCCN)NC(=O)[C@@H](NC(=O)[C@H](CCCN)NC(=O)[C@H](Cc1c[nH]c2ccccc12)NC(=O)[C@@H](C)NC(=O)[C@H](NC(=O)[C@@H](C)NC(=O)[C@@H](N)Cc1c[nH]c2ccccc12)C(C)C)[C@@H](C)O)C(=O)N[C@@H](Cc1ccc(O)c([N+](=O)[O-])c1)C(N)=O [L3-K] (H-W[dA][dV][dA]W[Orn]T[Orn][dV][Tyr(3-NO2)]-NH2)	418.7 µg/mL				248 µg/mL					cytotoxicity, cell viability HEK [7]: no cytotoxicity at any tested concentration; cytotoxicity, cell viability HepG2 [8]: no cytotoxicity at any tested concentration; stability in human serum [9]: stable after 24 h; additional peaks / shoulder in chromatogram after 24 h in serum, total volume percentage [9]: 1.3%
CC(C)[C@@H](NC(=O)[C@H](CCCN)NC(=O)[C@@H](NC(=O)[C@H](CCCN)NC(=O)[C@H](Cc1c[nH]c2ccccc12)NC(=O)[C@@H](C)NC(=O)[C@H](NC(=O)[C@@H](C)NC(=O)[C@@H](N)Cc1c[nH]c2ccccc12)C(C)C)[C@@H](C)O)C(=O)N[C@@H](Cc1ccc(O)c([N+](=O)[O-])c1)C(=O)N[C@@H](CCCCN)C(N)=O [L3] (H-W[dA][dV][dA]W[Orn]T[Orn][dV][Tyr(3-NO2)]K-NH2)	248 µg/mL					64 µg/mL				cytotoxicity, cell viability HEK [7]: no cytotoxicity at any tested concentration; cytotoxicity, cell viability HepG2 [8]: no cytotoxicity at any tested concentration; stability in human serum [9]: stable after 24 h; additional peaks / shoulder in chromatogram after 24 h in serum, total volume percentage [9]: 0.6%
Clc1ccccc1C(c1ccccc1)(c1ccccc1)n1ccnc1 [clotrimazole, reference compound]							>100 ^d μg/mL	>100 ^d μg/mL	>100 ^d μg/mL	MIC ([3]; Candida albicans, highest concentration 512 μg/mL, median, n = 3): 4 µg/mL (≈ 11.6 µM)
CC(=O)O[C@H]1C[C@@]2(C)[C@@H](C[C@@H](O)[C@H]3[C@@]4(C)CC[C@@H](O)[C@@H](C)[C@@H]4CC[C@@]32C)/C1=C(\CCC=C(C)C)C(=O)O [fusidic acid, reference compound]		6.3 µg/mL	1.6 µg/mL	25 µg/mL						MIC ([1]; Staphylococcus aureus, read-out: S. aureus MIC): 0.09 µg/mL (≈ 0.174 µM); MMC99 for S. aureus, decreasing over time ([2]; 2 h to 24 h): 25 to 1.6 μg/mL
